The record followed here is publication PMC10044445, “Tuning the Anthranilamide Peptidomimetic Design to Selectively Target Planktonic Bacteria and Biofilm” (Antibiotics, 2023).

pIC50: −log10 of the molar value. ≈ marks a conversion by molar mass, not a printed value. Read-outs that look alike come from different tables or passages of the source.

One assay has as its system S. aureus. Put plainly: Minimum inhibitory concentration, broth microdilution (CLSI). Format: cell-based, Staphylococcus aureus. On the procedure:
(§1) The antimicrobial activity of the compounds was evaluated by a broth microdilution assay using the procedure described by CLSI. Briefly, bacteria were grown to mid-log phase in Muller Hinton broth (MHB) with shaking at 120 rpm and incubated at 37 °C for 12–16 h. Following incubation, bacteria were washed three times in PBS pH 7.4 at 3500 g for 10 min. After washing, bacteria were diluted with fresh MHB. The turbidity of the bacterial suspensions was adjusted so that OD660nm was 0.1, which gave 1 × 10^8 CFU/mL, and then further diluted to achieve 5 × 10^5 CFU/mL as a final bacterial concentration. Each compound was diluted (250–3.9 µM) through two-fold dilution. Wells in microtiter plates were loaded with 100 µL of inoculum containing 5 × 10^5 CFU/mL bacteria. Wells without any compound and containing only bacteria were used as negative controls (i.e., no inhibition of growth). Wells with media only were set as blank. The microtiter plate was wrapped with paraffin to prevent evaporation and incubated with shaking at 120 rpm and 37 °C for 18–24 h. After incubation, spectrophotometric readings were taken. The well without any bacterial growth and showing zero spectrophotometric reading was regarded as the MIC of the compounds.
On the technique in general: In broth dilution the organism is exposed to a series of concentrations in liquid medium.

Another assay deals with E. coli. Described as above. Format: cell-based, Escherichia coli. The settings on record: for MIC90: broth microdilution in MHB, 18–24 h; for MIC: Table 2, lysine derivative versus parent, read-out: MIC E. coli. On the procedure:
as §1

For the next assay, the system named is MRC-5 human fibroblasts. The assay is described as follows: Toxicity assay, Alamar Blue. In kind it is cell-based. Particulars: MRC5; MRC-5 human fibroblasts, 72 h drug incubation, Alamar Blue. The protocol: Normal human lung fibroblasts MRC-5 were cultured in minimal essential medium (MEM, Invitrogen) supplemented with 10% foetal calf serum (FCS), 1% L-glutamine–penicillin–streptomycin, 2% sodium bicarbonate, 1% non-essential amino acids (NEAA), and 1% sodium pyruvate. The cell line was maintained at 37 °C in 5% CO2 as an adherent monolayer and was passaged upon reaching confluence by standard cell culture techniques. MRC-5 cells were seeded at 2 × 10^4 cells per well in 96-well plates to ensure full confluence (quiescence). Cells were treated for 24 h after seeding with 0.1 to 1000 μM of compounds. After 72 h of drug incubation, the treated media was replaced with fresh media containing 10% Alamar Blue and the cells were incubated for another 6 h. The metabolic activity was detected by spectrophotometric analysis by assessing the absorbance of Alamar blue as previously described by Pasquier et al. Cell proliferation was determined and expressed as a percentage of untreated control cells. The determination of IC50 values was performed using GraphPad Prism 6 (San Diego, CA, USA). Each experiment was performed in triplicate and was repeated in three independent experiments.
For orientation: Alamar Blue is a resazurin reagent that responds to reducing activity.

[1] abbreviates: Staphylococcus aureus, broth microdilution in MHB, 18–24 h.
Where [2] appears, read: Staphylococcus aureus, Table 2, lysine derivative versus parent, read-out: MIC S. aureus.

As to `NCCNC(=O)[C@H](Cc1c[nH]c2ccccc12)NC(=O)c1cc(Br)ccc1NC(=O)Cc1cccc2ccccc12` [Compound 12b, (S)-N-(1-((2-aminoethyl)amino)-3-(1H-indol-3-yl)-1-oxopropan-2-yl)-5-bromo-2-(2-(naphthalen-1-yl)acetamido)benzamide], the MIC90 against S. aureus (setting [1]) was 62.5 µM (≈ 38.3 µg/mL); in the assay with E. coli (Escherichia coli), greater than 125 µM. In addition, the MIC with S. aureus (Staphylococcus aureus, broth microdilution in MHB, 18–24 h, read-out: MIC90 S. aureus) came to 15.6 µM (≈ 9.56 µg/mL).
With `COc1ccc2ccccc2c1C(=O)Nc1ccc(Br)cc1C(=O)N[C@@H](Cc1c[nH]c2ccccc12)C(=O)NCCN` [Compound 12c, (S)-N-(2-((1-((2-aminoethyl)amino)-3-(1H-indol-3-yl)-1-oxopropan-2-yl)carbamoyl)-4-bromophenyl)-2-methoxy-1-naphthamide], the MIC90 against S. aureus (setting [1]) is 15.6 µM (≈ 9.81 µg/mL); with E. coli (Escherichia coli), greater than 125 µM.
`COc1cc2ccccc2cc1C(=O)Nc1ccc(Br)cc1C(=O)N[C@@H](Cc1c[nH]c2ccccc12)C(=O)NCCN` [Compound 12d, (S)-N-(2-((1-((2-aminoethyl)amino)-3-(1H-indol-3-yl)-1-oxopropan-2-yl)carbamoyl)-4-bromophenyl)-3-methoxy-2-naphthamide]: the MIC90 is 7.8 µM (≈ 4.9 µg/mL) with S. aureus (setting [1]) and greater than 125 µM in the assay with E. coli (Escherichia coli). This molecule had a negative-log IC50 (pIC50) with MRC-5 human fibroblasts of 4.73.
For the molecule `NCCNC(=O)[C@H](Cc1c[nH]c2ccccc12)NC(=O)c1cc(Br)ccc1NC(=O)c1ccc2ccccc2n1` [Compound 12e, (S)-N-(2-((1-((2-aminoethyl)amino)-3-(1H-indol-3-yl)-1-oxopropan-2-yl)carbamoyl)-4-bromophenyl)quinoline-2-carboxamide], the MIC90 was 15.6 µM (≈ 9.35 µg/mL) against S. aureus (setting [1]) and greater than 125 µM in the assay with E. coli (Escherichia coli).
Take `NCCNC(=O)[C@H](Cc1c[nH]c2ccccc12)NC(=O)c1cc(Br)ccc1NC(=O)c1cc2ccccc2[nH]1` [Compound 12f, (S)-N-(2-((1-((2-aminoethyl)amino)-3-(1H-indol-3-yl)-1-oxopropan-2-yl)carbamoyl)-4-bromophenyl)-1H-indole-2-carboxamide]: the MIC90 is 125 µM (≈ 73.4 µg/mL) with S. aureus (setting [1]) and greater than 125 µM in the assay with E. coli (Escherichia coli).
Take `NCCNC(=O)[C@H](Cc1c[nH]c2ccccc12)NC(=O)c1cc(Br)ccc1NC(=O)c1cccs1` [Compound 12g, (S)-N-(2-((1-((2-aminoethyl)amino)-3-(1H-indol-3-yl)-1-oxopropan-2-yl)carbamoyl)-4-bromophenyl)thiophene-2-carboxamide]: the MIC90 in the assay on S. aureus (setting [1]) is 125 µM (≈ 69.3 µg/mL); with E. coli (Escherichia coli), greater than 125 µM.
The corresponding values for `NCCNC(=O)[C@H](Cc1c[nH]c2ccccc12)NC(=O)c1cc(Br)ccc1NC(=O)c1ccsc1` [Compound 12h, (S)-N-(2-((1-((2-aminoethyl)amino)-3-(1H-indol-3-yl)-1-oxopropan-2-yl)carbamoyl)-4-bromophenyl)thiophene-3-carboxamide] are 125 µM (≈ 69.3 µg/mL) and greater than 125 µM.
Consider `NCCNC(=O)[C@H](Cc1c[nH]c2ccccc12)NC(=O)c1cc(Br)ccc1NC(=O)c1ccccc1-c1ccccc1` [Compound 12i, (S)-N-(2-((1-((2-aminoethyl)amino)-3-(1H-indol-3-yl)-1-oxopropan-2-yl)carbamoyl)-4-bromophenyl)-[1,1′-biphenyl]-2-carboxamide], for which the results for the MIC90 in the assay with S. aureus (setting [1]) and against E. coli (Escherichia coli) were 15.6 µM (≈ 9.74 µg/mL) and greater than 125 µM, respectively. In the assay with MRC-5 human fibroblasts, this molecule showed a negative logarithm of the IC50 (pIC50) of 4.64.
Take `NCCNC(=O)[C@H](Cc1c[nH]c2ccccc12)NC(=O)c1cc(Br)ccc1NC(=O)c1cccc(-c2ccccc2)c1` [Compound 12j, (S)-N-(2-((1-((2-aminoethyl)amino)-3-(1H-indol-3-yl)-1-oxopropan-2-yl)carbamoyl)-4-bromophenyl)-[1,1′-biphenyl]-3-carboxamide]: the MIC is 3.9 µM (≈ 2.44 µg/mL) in the assay on S. aureus (setting [2]) and greater than 125 µM in the assay on E. coli (Escherichia coli). Also, the MIC90 against S. aureus (setting [1]) was 3.9 µM (≈ 2.44 µg/mL); in the assay on E. coli (Escherichia coli) it was greater than 125 µM; against E. coli, greater than 125 µM. In the assay on MRC-5 human fibroblasts, this molecule had a negative logarithm of the IC50 (pIC50) of 4.87.
For the molecule `NCCNC(=O)[C@H](Cc1c[nH]c2ccccc12)NC(=O)c1cc(Br)ccc1NC(=O)c1ccc(-c2ccccc2)cc1` [Compound 12k, (S)-N-(2-((1-((2-aminoethyl)amino)-3-(1H-indol-3-yl)-1-oxopropan-2-yl)carbamoyl)-4-bromophenyl)-[1,1′-biphenyl]-4-carboxamide], the MIC was 7.8 µM (≈ 4.87 µg/mL) with S. aureus (setting [2]) and greater than 125 µM with E. coli (Escherichia coli). Moreover, the MIC90 in the assay on S. aureus (setting [1]) is 7.8 µM (≈ 4.87 µg/mL); in the assay with E. coli (Escherichia coli) it was greater than 125 µM. For the same molecule, the pIC50 with MRC-5 human fibroblasts was 4.90.
Regarding `NCCCNC(=O)[C@H](Cc1c[nH]c2ccccc12)NC(=O)c1cc(Br)ccc1NC(=O)c1ccc2ccccc2c1` [Compound 13a, (S)-N-(2-((1-((3-aminopropyl)amino)-3-(1H-indol-3-yl)-1-oxopropan-2-yl)carbamoyl)-4-bromophenyl)-2-naphthamide], the MIC90 in the assay on S. aureus (setting [1]) was 15.6 µM (≈ 9.56 µg/mL); in the assay on E. coli (Escherichia coli) it was greater than 125 µM.
As to `NCCCNC(=O)[C@H](Cc1c[nH]c2ccccc12)NC(=O)c1cc(Br)ccc1NC(=O)Cc1cccc2ccccc12` [Compound 13b, (S)-N-(1-((3-aminopropyl)amino)-3-(1H-indol-3-yl)-1-oxopropan-2-yl)-5-bromo-2-(2-(naphthalen-1-yl)acetamido)benzamide], the MIC90 was 62.5 µM (≈ 39.2 µg/mL) in the assay on S. aureus (setting [1]) and greater than 125 µM in the assay on E. coli (Escherichia coli).
As to `COc1ccc2ccccc2c1C(=O)Nc1ccc(Br)cc1C(=O)N[C@@H](Cc1c[nH]c2ccccc12)C(=O)NCCCN` [Compound 13c, (S)-N-(2-((1-((3-aminopropyl)amino)-3-(1H-indol-3-yl)-1-oxopropan-2-yl)carbamoyl)-4-bromophenyl)-2-methoxy-1-naphthamide], the MIC90 in the assay on S. aureus (setting [1]) came out at 15.6 µM (≈ 10 µg/mL); with E. coli (Escherichia coli), 62.5 µM (≈ 40.2 µg/mL). Besides, the negative-log IC50 (pIC50) in the assay on MRC-5 human fibroblasts is 4.69.
Consider `NCCCNC(=O)[C@H](Cc1c[nH]c2ccccc12)NC(=O)c1cc(Br)ccc1NC(=O)c1ccc2ccccc2n1` [Compound 13e, (S)-N-(2-((1-((3-aminopropyl)amino)-3-(1H-indol-3-yl)-1-oxopropan-2-yl)carbamoyl)-4-bromophenyl)quinoline-2-carboxamide], for which the MIC90 against S. aureus (setting [1]) and in the assay with E. coli (Escherichia coli) was greater than 125 µM each time.
`CC(C)(C)c1ccc(-c2ccc(N)c(C(=O)N[C@@H](Cc3c[nH]c4ccccc34)C(=O)NCCN)c2)cc1` [Compound 16a, (S)-4-amino-N-(1-((2-aminoethyl)amino)-3-(1H-indol-3-yl)-1-oxopropan-2-yl)-4′-(tert-butyl)-[1,1′-biphenyl]-3-carboxamide]: the MIC90 was 7.8 µM (≈ 3.88 µg/mL) with S. aureus (setting [1]) and greater than 125 µM with E. coli (Escherichia coli). In the assay with MRC-5 human fibroblasts, this molecule gave a pIC50 of 4.47.
For `NCCNC(=O)[C@H](Cc1c[nH]c2ccccc12)NC(=O)c1cc(-c2ccc(F)cc2)ccc1N` [Compound 16c, (S)-4-amino-N-(1-((2-aminoethyl)amino)-3-(1H-indol-3-yl)-1-oxopropan-2-yl)-4′-fluoro-[1,1′-biphenyl]-3-carboxamide], in that order: 31.2 µM (≈ 14.3 µg/mL), greater than 125 µM and 4.47.
With `NCCNC(=O)[C@H](Cc1c[nH]c2ccccc12)NC(=O)c1cc(-c2ccc(C(F)(F)F)cc2)ccc1N` [Compound 16d, (S)-4-amino-N-(1-((2-aminoethyl)amino)-3-(1H-indol-3-yl)-1-oxopropan-2-yl)-4′-(trifluoromethyl)-[1,1′-biphenyl]-3-carboxamide], the MIC90 in the assay on S. aureus (setting [1]) is 15.6 µM (≈ 7.95 µg/mL); against E. coli (Escherichia coli) it was greater than 125 µM.
The corresponding values for `NCCNC(=O)[C@H](Cc1c[nH]c2ccccc12)NC(=O)c1cc(Br)ccc1N` [Compound 17, (S)-2-amino-N-(1-((2-aminoethyl)amino)-3-(1H-indol-3-yl)-1-oxopropan-2-yl)-5-bromobenzamide] are greater than 125 µM and greater than 125 µM.
Turning to Colistin [reference compound], the MIC90 with S. aureus (broth microdilution in MHB, 18–24 h) stood at 125 µM; against E. coli, 1 µM.

For orientation: MIC90 means the lowest concentration that inhibits either 90% of growth or 90% of the strains tested, depending on the study. What is called pIC50 is the negative decadic logarithm of the IC50, by convention in mol/L. Low values mean a large IC50, high ones a small IC50.
